Assay results from ChEMBL document CHEMBL5321293, “Discovery of ERD-3111 as a Potent and Orally Efficacious Estrogen Receptor PROTAC Degrader with Strong Antitumor Activity” (J Med Chem, 2023).

Tests used:
[1] = Drug concentration in tumor of CB17 SCID mouse xenografted with human MCF7 cells harboring ESR1 D538G mutant at 10 mg/kg, po qd for 3 days and measured after 6 hrs last dose by LC-MS/MS analysis; type: ADME, organism-based, Neoplasm; conditions: time 3 day, read-out: Ct
[2] = Downregulation of ERalpha protein expression in tumor of CB17 SCID mouse xenografted with human MCF7 cells harboring wild type ESR1 at 30 mg/kg, po qd for 3 days and measured after 3 hrs last dose by Western blot analysis relative to control; type: functional; conditions: time 3 day
[3] = Downregulation of ERalpha protein expression in tumor of CB17 SCID mouse xenografted with human MCF7 cells harboring wild type ESR1 at 10 mg/kg, po qd for 3 days and measured after 24 hrs last dose by Western blot analysis relative to control; type: functional; conditions: time 3 day
[4] = Downregulation of ERalpha protein expression in tumor of CB17 SCID mouse xenografted with human MCF7 cells harboring ESR1 D538G mutant at 10 mg/kg, po qd for 3 days and measured after 6 hrs last dose by Western blot analysis relative to control; type: functional; conditions: time 3 day
MCF7 [5] = assay: Antitumor activity against human MCF7 cells harboring ESR1 Y537S mutant xenografted in CB17 SCID mouse assessed as tumor growth inhibition at 30 mg/kg, po qd for 4 weeks; type: functional; conditions: MCF7, 672 h, read-out: TGI
Cytochrome P450 1A2 = molecular target: T1, Cytochrome P450 1A2 (Homo sapiens, UniProt P05177); assay: Inhibition of CYP1A2 in human liver microsomes preincubated for 5 mins in presence substrate followed by NADPH addition and measured after 10 mins by LC-MS/MS analysis; type: ADME, Microsome
T1 sequence (P05177 whole entry): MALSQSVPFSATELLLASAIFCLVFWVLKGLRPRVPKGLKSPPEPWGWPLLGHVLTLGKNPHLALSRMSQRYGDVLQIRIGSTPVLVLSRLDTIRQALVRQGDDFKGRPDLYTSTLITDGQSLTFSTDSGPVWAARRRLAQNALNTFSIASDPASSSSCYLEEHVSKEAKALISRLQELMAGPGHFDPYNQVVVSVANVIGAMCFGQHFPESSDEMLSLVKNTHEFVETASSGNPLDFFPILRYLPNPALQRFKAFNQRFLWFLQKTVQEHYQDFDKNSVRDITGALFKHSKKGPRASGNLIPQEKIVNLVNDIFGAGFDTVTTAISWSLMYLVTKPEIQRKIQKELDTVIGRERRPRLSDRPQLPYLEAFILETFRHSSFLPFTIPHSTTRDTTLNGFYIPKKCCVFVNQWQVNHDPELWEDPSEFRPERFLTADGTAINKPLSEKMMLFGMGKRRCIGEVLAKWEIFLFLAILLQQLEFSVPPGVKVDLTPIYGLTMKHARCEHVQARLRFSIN

[6] = Volume of distribution at steady state in Beagle dog at 0.5 mg/kg, iv and measured upto 24 hrs by LC-MS/MS analysis; type: ADME, organism-based, Canis lupus familiaris; conditions: in vivo, read-out: Vdss
[7] = Downregulation of ERalpha protein expression in tumor of CB17 SCID mouse xenografted with human MCF7 cells harboring ESR1 Y537S mutant at 30 mg/kg, po qd for 3 days and measured after 6 hrs last dose by Western blot analysis relative to control; type: functional; conditions: time 3 day
MCF7 [8] = assay: Antitumor activity against human MCF7 cells harboring ESR1 D538G mutant xenografted in CB17 SCID mouse assessed as tumor growth inhibition at 30 mg/kg, po qd for 4 weeks; type: functional; conditions: MCF7, 672 h, read-out: TGI
[9] = molecular target: Protein cereblon/Estrogen receptor (Homo sapiens, UniProt P03372+Q96SW2); assay: Protac activity at human ERalpha in human MCF7 cells assessed as induction of ERalpha degradation by measuring maximum efficacy at 1 uM incubated for 12 hrs by ICW blot assay relative to control; type: cell-based
MCF7 [10] = assay: Antitumor activity against human MCF7 cells harboring wild type ESR1 xenografted in CB17 SCID mouse assessed as tumor growth inhibition at 10 mg/kg, po qd for 5 weeks and measured 3 weeks post last dose; type: functional; conditions: MCF7, 840 h, read-out: TGI

Chain of Protein cereblon/Estrogen receptor (P03372 whole entry, looked up): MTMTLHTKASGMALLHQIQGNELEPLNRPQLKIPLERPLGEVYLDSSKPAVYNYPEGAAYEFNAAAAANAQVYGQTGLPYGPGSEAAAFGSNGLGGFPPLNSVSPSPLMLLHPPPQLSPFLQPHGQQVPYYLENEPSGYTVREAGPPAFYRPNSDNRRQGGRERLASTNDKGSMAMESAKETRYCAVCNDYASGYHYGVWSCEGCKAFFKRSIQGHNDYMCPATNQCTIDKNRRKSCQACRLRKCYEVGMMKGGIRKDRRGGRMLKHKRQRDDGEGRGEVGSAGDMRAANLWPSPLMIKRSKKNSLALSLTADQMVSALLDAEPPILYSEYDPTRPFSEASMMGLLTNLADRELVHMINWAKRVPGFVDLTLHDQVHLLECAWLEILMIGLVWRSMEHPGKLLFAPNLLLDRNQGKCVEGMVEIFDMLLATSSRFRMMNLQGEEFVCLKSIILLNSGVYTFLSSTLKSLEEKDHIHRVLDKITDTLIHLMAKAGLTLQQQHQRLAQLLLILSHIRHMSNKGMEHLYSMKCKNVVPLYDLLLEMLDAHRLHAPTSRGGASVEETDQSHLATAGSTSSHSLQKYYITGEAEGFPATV
Chain of Protein cereblon/Estrogen receptor (Q96SW2 whole entry, looked up): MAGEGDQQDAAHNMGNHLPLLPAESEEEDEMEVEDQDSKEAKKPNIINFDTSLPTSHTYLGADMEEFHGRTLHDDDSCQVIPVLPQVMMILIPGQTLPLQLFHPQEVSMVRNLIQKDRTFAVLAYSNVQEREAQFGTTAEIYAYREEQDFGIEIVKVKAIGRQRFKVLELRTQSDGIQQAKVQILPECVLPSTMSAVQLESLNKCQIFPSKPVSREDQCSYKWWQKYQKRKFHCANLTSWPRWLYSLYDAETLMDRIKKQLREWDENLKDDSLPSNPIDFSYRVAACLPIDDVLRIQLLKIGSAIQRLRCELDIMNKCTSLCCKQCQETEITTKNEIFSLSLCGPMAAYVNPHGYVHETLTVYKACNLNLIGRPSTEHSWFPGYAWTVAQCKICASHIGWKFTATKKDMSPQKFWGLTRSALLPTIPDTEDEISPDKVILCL

concentration at 72 h [1]: 1050 ng/mL | IC50 (Cytochrome P450 1A2): > 10 µM | Vd [6]: 5.2 L/kg | Emax [9]: 91%
SMILES: C[C@@H]1Cc2c(ccc3[nH]ncc23)[C@@H](c2c(F)cc(N3CCC4(CCN(C(=O)CN5Cc6cc7c(cc6C5)C(=O)N(C5CCC(=O)NC5=O)C7=O)CC4)CC3)cc2F)N1CC(F)F (stereo partly specified)
Activity [2]: 82% | Activity [3]: 70% | Activity [4]: 68% | inhibition in vivo at 30 mg/kg (MCF7 [5]): 86% | Activity [7]: 85% | inhibition in vivo at 30 mg/kg (MCF7 [8]): 51% | inhibition in vivo at 10 mg/kg (MCF7 [10]): 13%
